Data as given in Sander's compilation of Henry's law constants.

Legend:
[1] = Henry solubility constant Hcp at 310 K (mol/(m3 Pa))
[2] = Henry solubility constant Hcp at 298.15 K (mol/(m3 Pa))
[3] = Henry solubility constant Hcp at 293 K (mol/(m3 Pa))
[4] = reference: Johanson and Dynésius (1988)
[5] = reference: Warner et al. (1980)
[6] = reference: Sheikheldin et al. (2001)
[7] = reference: Pearson and McConnell (1975)

FC(F)OC(F)(F)C(F)Cl (configuration not stated) [2-chloro-1,1,2-trifluoroethyl difluoromethyl ether]
Henry solubility constant Hcp at 310 K ([1]; reference: Lerman et al. (1983)): 0.00029

[134Xe] [xenon-133]
Henry solubility constant Hcp at 310 K ([1]; reference: Ercan (1979)): 3.2e-05

O=C=O [carbon dioxide]
Henry solubility constant Hcp at 310 K ([1]; reference: Power and Stegall (1970)): 0.00024 | Henry solubility constant Hcp ([2]; reference: Bohr (1899)): 0.00034 | Henry solubility constant Hcp ([2]; reference: Bunsen (1855a)): 0.00034 | Henry solubility constant Hcp ([2]; reference: Geffcken (1904)): 0.00033 | Henry solubility constant Hcp ([2]; reference: Kunerth (1922)): 0.00033 | Henry solubility constant Hcp ([2]; reference: Morrison and Billett (1952)): 0.00033 | Henry solubility constant Hcp ([2]; reference: Murray and Riley (1971)): 0.00033 | Henry solubility constant Hcp ([2]; reference: Orcutt and Seevers (1937a)): 0.00033 | Henry solubility constant Hcp ([2]; reference: Zheng et al. (1997)): 0.00034

CC1=CCC2C(C1)C2(C)C (configuration not stated) [3,7,7-trimethyl-bicyclo[4.1.0]hept-3-ene]
Henry solubility constant Hcp at 310 K ([1]; reference: Falk et al. (1990)): 0.00016

COCCO [2-methoxyethanol]
Henry solubility constant Hcp at 310 K [1, 4]: 14

ClC(Cl)Br [bromodichloromethane]
Henry solubility constant Hcp at 310 K ([1]; reference: Zhang et al. (2002)): 0.0029 | Henry solubility constant Hcp ([2]; reference: Ervin et al. (1980)): 0.0035 | Henry solubility constant Hcp ([2]; reference: Nicholson et al. (1984)): 0.0047 | Henry solubility constant Hcp ([2]; reference: Ruiz-Bevia and Fernandez-Torres (2010)): 0.0058 | Henry solubility constant Hcp [2, 5]: 0.0047

CCOCCOC(C)=O [2-ethoxyethyl ethanoate]
Henry solubility constant Hcp at 310 K [1, 4]: 1.5

Cc1cccc(C)c1C [1,2,3-trimethylbenzene]
Henry solubility constant Hcp at 310 K ([1]; reference: Järnberg and Johanson (1995)): 0.0011

COCC(C)O (configuration not stated) [1-methoxy-2-propanol]
Henry solubility constant Hcp at 310 K [1, 4]: 4.8

CSC [dimethyl sulfide]
Henry solubility constant Hcp at 293 K ([3]; reference: Vitenberg et al. (1975)): 0.0061 | Henry solubility constant Hcp ([2]; reference: Barcellos da Rosa et al. (2003)): 0.0064 | Henry solubility constant Hcp ([2]; reference: Bruneel et al. (2016)): 0.0047 | Henry solubility constant Hcp ([2]; reference: Coquelet and Richon (2005)): 0.0052 | Henry solubility constant Hcp ([2]; reference: Dacey et al. (1984)): 0.0055 | Henry solubility constant Hcp ([2]; reference: De Bruyn et al. (1995b)): 0.0047 | Henry solubility constant Hcp ([2]; reference: Gershenzon et al. (2001)): 0.0047 | Henry solubility constant Hcp ([2]; reference: Iliuta and Larachi (2005a)): 0.0055 | Henry solubility constant Hcp ([2]; reference: Lovelock et al. (1972)): 0.0016 | Henry solubility constant Hcp ([2]; reference: Marin et al. (1999)): 0.016 | Henry solubility constant Hcp ([2]; reference: Pollien et al. (2003)): 0.0049 | Henry solubility constant Hcp ([2]; reference: Schuhfried et al. (2011)): 0.0046 | Henry solubility constant Hcp ([2]; reference: Straver and de Loos (2005)): 0.0049 | Henry solubility constant Hcp ([2]; reference: Wong and Wang (1997)): 0.0042

Oc1ccccc1Cl [2-hydroxychlorobenzene]
Henry solubility constant Hcp at 293 K [3, 6]: 1.5 | Henry solubility constant Hcp ([2]; reference: Tabai et al. (1997)): 3.6

C=C(Cl)Cl [1,1-dichloroethene]
Henry solubility constant Hcp at 293 K ([3]; reference: Chiang et al. (1998)): 0.00044 | Henry solubility constant Hcp at 293 K [3, 7]: 6.6e-05 | Henry solubility constant Hcp at 293 K ([3]; reference: Yurteri et al. (1987)): 0.00013 | Henry solubility constant Hcp ([2]; reference: Bissonette et al. (1990)): 0.00034 | Henry solubility constant Hcp ([2]; reference: Ervin et al. (1980)): 0.00014 | Henry solubility constant Hcp ([2]; reference: Gossett (1987)): 0.00038 | Henry solubility constant Hcp [2, 5]: 0.00066

COP(=S)(OC)Oc1ccc([N+](=O)[O-])cc1 [methylparathion]
Henry solubility constant Hcp at 293 K ([3]; reference: Rice et al. (1997b)): 260 | Henry solubility constant Hcp ([2]; reference: Metcalfe et al. (1980)): 99

ClC(Cl)=C(Cl)C(Cl)=C(Cl)Cl [hexachlorobutadiene]
Henry solubility constant Hcp at 293 K [3, 7]: 0.0004 | Henry solubility constant Hcp [2, 5]: 0.00096

OO [hydrogen peroxide]
Henry solubility constant Hcp at 293 K ([3]; reference: Yoshizumi et al. (1984)): 1400 | Henry solubility constant Hcp ([2]; reference: Huang and Chen (2010)): 1100 | Henry solubility constant Hcp ([2]; reference: Hwang and Dasgupta (1985)): 670 | Henry solubility constant Hcp ([2]; reference: Lind and Kok (1994)): 990 | Henry solubility constant Hcp ([2]; reference: O’Sullivan et al. (1996)): 820 | Henry solubility constant Hcp ([2]; reference: Rivera-Rios (2018)): 1200 | Henry solubility constant Hcp ([2]; reference: Zhou and Lee (1992)): 850

ClC1=C(Cl)[C@]2(Cl)[C@@H]3[C@@H]4C[C@@H]([C@H]5O[C@@H]45)[C@@H]3[C@@]1(Cl)C2(Cl)Cl [dieldrin]
Henry solubility constant Hcp at 293 K ([3]; reference: Slater and Spedding (1981)): 0.34 | Henry solubility constant Hcp [2, 5]: 0.17

CCC(=O)OO[N+](=O)[O-] [peroxypropionyl nitrate]
Henry solubility constant Hcp at 293 K ([3]; reference: Kames and Schurath (1995)): 0.029 | Henry solubility constant Hcp ([2]; reference: Easterbrook et al. (2023)): 0.016

Cc1ccc(O)c(C)c1 [1-hydroxy-2,4-dimethylbenzene]
Henry solubility constant Hcp at 293 K [3, 6]: 6.6 | Henry solubility constant Hcp ([2]; reference: Dohnal and Fenclová (1995)): 4.9

c1ccc2c(c1)ccc1ccccc12 [phenanthrene]
Henry solubility constant Hcp at 293 K ([3]; reference: De Maagd et al. (1998)): 0.34 | Henry solubility constant Hcp ([2]; reference: Alaee et al. (1996)): 0.21 | Henry solubility constant Hcp ([2]; reference: Bamford et al. (1999b)): 0.16 | Henry solubility constant Hcp ([2]; reference: Mackay et al. (1979)): 0.25 | Henry solubility constant Hcp ([2]; reference: Odabasi et al. (2006)): 0.27 | Henry solubility constant Hcp ([2]; reference: Southworth (1979)): 0.18
